Laboratory results reported in US20240174690A1, “ANNULATED 2-AMINO-3-CYANO THIOPHENES AND DERIVATIVES FOR THE TREATMENT OF CANCER” (BOEHRINGER INGELHEIM INTERNATIONAL GMBH, priority 2021, published 2024).

Assays:
KRAS (G12D)::SOS1 = KRAS (G12D)::SOS1 (Homo sapiens (Human), UniProt P01116, G12D); experiment: KRAS::SOS1 AlphaScreen binding assay, KRAS G12D
How it was run: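 AlphaScreen measurement of compound disruption of biotinylated, GDP-loaded KRAS 1-169 (10 nM; G12C 7.5 nM) binding to GST-SOS1 564-1049 (5 nM with G12D/G12C, 10 nM otherwise), with 10 μM GDP in PBS/0.1% BSA/0.05% Tween 20. Timing was 30 min compound preincubation, then 60 min with beads at room temperature; top concentration 100 μM, 4-parameter IC50.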

[1] = Caco-2 assay (permeability PappAB, PappBA, efflux ratio); type: in vitro ADME; conditions: human, Caco-2, 10 μM test compound, pH 7.4; for Papp A→B at 90 min, 10 μM: apical to basolateral; for efflux ratio at 90 min, 10 μM: efflux ratio PappBA/PappAB, read-out: Caco ER
How it was run: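 Bidirectional permeability (apical-to-basolateral and reverse) through polarized Caco-2 monolayers, BSA 0.25% on each side, 37 °C. Donor and receiver sampled at 0-90 min after 25-30 min preincubation, analysed by HPLC/MS/MS. Apparent permeabilities derived from transfer rate normalised to area and t=0 donor concentration; ER taken as PappBA over PappAB.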

Sequence of KRAS (G12D)::SOS1 (P01116 other isoform, or with tags, fused parts or gaps G12D): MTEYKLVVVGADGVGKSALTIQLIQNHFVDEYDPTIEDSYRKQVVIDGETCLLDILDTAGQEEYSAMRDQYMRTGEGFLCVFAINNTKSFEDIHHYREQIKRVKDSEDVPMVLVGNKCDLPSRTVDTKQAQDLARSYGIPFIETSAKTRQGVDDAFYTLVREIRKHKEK

SMILES	IC50 (KRAS (G12D)::SOS1) [nM]	Papp A→B at 90 min, 10 μM [1] [×10⁻⁶ cm/s]	efflux ratio at 90 min, 10 μM [1]
CO[C@H]1CCN(C)[C@@H]1[C@H](C)Oc1cc(N2CCNC3(CC3)C2)nc(-c2onc3c2CCC[C@@]32CCCc3sc(N)c(C#N)c32)n1 [I-49]	1	10	2.9
CO[C@@H]1C[C@@H]([C@H](C)Oc2cc(N3CCN(C)C4(CC4)C3)nc(-c3onc4c3CCC[C@@]43CCCc4sc(N)c(C#N)c43)n2)N(C)C1 [I-50]	1		1.7
C[C@H](Oc1cc(-n2ccc(C(=O)N[C@@H]3CCOC3)n2)nc(-c2onc3c2CCC[C@@]32CCCc3sc(N)c(C#N)c32)n1)[C@@H]1CCCN1C [I-56]	2		10.4
COCCNC(=O)c1ccn(-c2cc(O[C@@H](C)[C@@H]3CCCN3C)nc(-c3onc4c3CCC[C@@]43CCCc4sc(N)c(C#N)c43)n2)n1 [I-58]	1	14	3.4
C[C@H](Oc1cc(N2CC(N(C)C)C2)nc(-c2noc3c2CCC[C@@]32CCCc3sc(N)c(C#N)c32)n1)[C@@H]1CCCN1C [II-7]	1	1.3	21.5
C[C@H](Oc1cc(N2CCN(CCO)CC2)nc(-c2noc3c2CCC[C@@]32CCCc3sc(N)c(C#N)c32)n1)[C@@H]1CCCN1C [II-8]	1	1.1	12.7
C[C@H](Oc1cc(N2C[C@@H](N(C)C)[C@@H](O)C2)nc(-c2noc3c2CCC[C@@]32CCCc3sc(N)c(C#N)c32)n1)[C@@H]1CCCN1C [II-10]	2	0.3	68
C[C@H](Oc1cc(N2CC[C@H](N3CCCCC3)C2)nc(-c2noc3c2CCC[C@@]32CCCc3sc(N)c(C#N)c32)n1)[C@@H]1CCCN1C [II-12]	1		12.1
C[C@H](Oc1cc(N2CCN(C)C3(COC3)C2)nc(-c2noc3c2CCC[C@@]32CCCc3sc(N)c(C#N)c32)n1)[C@@H]1CCCN1C [II-13]	1	1.4	21.4
C[C@H](Oc1cc(N2CC[C@H](N3CCCC3)C2)nc(-c2noc3c2CCC[C@@]32CCCc3sc(N)c(C#N)c32)n1)[C@@H]1CCCN1C [II-14]	1	1	32.3
C[C@H](Oc1cc(N2CC[C@H](N(C)C)C2)nc(-c2noc3c2CCC[C@@]32CCCc3sc(N)c(C#N)c32)n1)[C@@H]1C[C@@H](F)CN1C [II-15]	1		5.3
C[C@H]1CN(C)CCCN1c1cc(N2CC[C@H](N(C)C)C2)nc(-c2noc3c2CCC[C@@]32CCCc3sc(N)c(C#N)c32)n1 [II-16]	1	0.5	33.3
CNC(=O)c1ccn(-c2cc(O[C@@H](C)[C@@H]3CCCN3C)nc(-c3noc4c3CCC[C@@]43CCCc4sc(N)c(C#N)c43)n2)n1 [II-20]	2	11.1	3.3
C[C@H](Oc1cc(-n2ccc(C(N)=O)n2)nc(-c2noc3c2CCC[C@@]32CCCc3sc(N)c(C#N)c32)n1)[C@@H]1CCCN1C [II-21]	2	3.5	6.6
C[C@H](Oc1cc(-n2ccc(C(=O)NC3COC3)n2)nc(-c2noc3c2CCC[C@@]32CCCc3sc(N)c(C#N)c32)n1)[C@@H]1CCCN1C [II-25]	2	1.1	22.7
C[C@H](Oc1cc(-n2ccc(C(=O)NC3(C)COC3)n2)nc(-c2noc3c2CCC[C@@]32CCCc3sc(N)c(C#N)c32)n1)[C@@H]1CCCN1C [II-26]	2	11	5.8
C[C@H](Oc1cc(-c2ccn(C)n2)nc(-c2noc3c2CCC[C@@]32CCCc3sc(N)c(C#N)c32)n1)[C@@H]1C[C@@H](F)CN1C [II-27]	8	11	0.7
C[C@H](Oc1cc(N2CCNC3(COC3)C2)nc(-c2noc3c2CCC[C@@]32CCCc3sc(N)c(C#N)c32)n1)[C@@H]1CCCN1C [II-31]	1	< 0.1	
C[C@H](Oc1cc(N2CCNC(C)(C)C2)nc(-c2noc3c2CCC[C@@]32CCCc3sc(N)c(C#N)c32)n1)[C@@H]1CCCN1C [II-32]	1	0.3	76.6
C[C@H](Oc1cc(N2C[C@H]3CN(C)C[C@H]3C2)nc(-c2noc3c2CCC[C@@]32CCCc3sc(N)c(C#N)c32)n1)[C@@H]1CCCN1C [II-33]	2	0.4	52.3
C[C@H](Oc1cc(N2CC3CCC(C2)N3)nc(-c2noc3c2CCC[C@@]32CCCc3sc(N)c(C#N)c32)n1)[C@@H]1CCCN1C [II-34]	1	0.4	37.8
CN[C@H]1CCN(c2cc(O[C@@H](C)[C@@H]3CCCN3C)nc(-c3noc4c3CCC[C@@]43CCCc4sc(N)c(C#N)c43)n2)C1 [II-35]	2	< 0.5	
C[C@H](Oc1cc([C@@H]2CCN(C)C2)nc(-c2noc3c2CCC[C@@]32CCCc3sc(N)c(C#N)c32)n1)[C@@H]1CCCN1C [II-37]	1	0.2	121
C[C@H](Oc1cc([C@H]2CCN(C)C2)nc(-c2noc3c2CCC[C@@]32CCCc3sc(N)c(C#N)c32)n1)[C@@H]1CCCN1C [II-38]	1	0.2	104
C[C@H](Oc1cc(N2CCNC3(CCC3)C2)nc(-c2noc3c2CCC[C@@]32CCCc3sc(N)c(C#N)c32)n1)[C@@H]1CCCN1C [II-40]	1	0.8	39.7
C[C@H](Oc1cc(-c2ccn([C@H]3CCCOC3)n2)nc(-c2noc3c2CCC[C@@]32CCCc3sc(N)c(C#N)c32)n1)[C@@H]1CCCN1C [II-42]	2		2
C[C@H](Oc1cc(-c2ccn(C[C@@H]3CCCO3)n2)nc(-c2noc3c2CCC[C@@]32CCCc3sc(N)c(C#N)c32)n1)[C@@H]1CCCN1C [II-43]	2	10	1.2
C[C@H](Oc1cc(C2CCCO2)nc(-c2noc3c2CCC[C@@]32CCCc3sc(N)c(C#N)c32)n1)[C@@H]1CCCN1C (some centres unmarked) [II-44]	2	15	1.5
C[C@H](Oc1nc(-c2noc3c2CCC[C@@]32CCCc3sc(N)c(C#N)c32)cc(N2C[C@H](C)N[C@@H](C)C2)n1)[C@@H]1CCCN1C [II-46]	1	0.8	28.8
C[C@H](Oc1cc(N2CCC(N(C)C)CC2)nc(-c2noc3c2CCC[C@@]32CCCc3sc(N)c(C#N)c32)n1)[C@@H]1CCCN1C [II-48]	1	0.6	32.2
